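48-hour exposure; five concentrations; linearly interpolated endpoints. GI50: concentration for 50% inhibition of growth.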 The source made the active and inactive calls. Rule as the data show it: active = GI50 up to about 1.1 µM and inactive = higher.
How the values were obtained:
Assay in all cases: DTP human tumour cell line panel, 48 h
[1] = tested on: DMS-273
[2] = tested on: HOP-18
[3] = tested on: KM-20L2
[4] = tested on: LXFL 529
[5] = tested on: RXF 631
[6] = tested on: DLD-1
[7] = tested on: Hs-578T
[8] = tested on: XF498

Measured: GI50

CCOC(=O)c1c(/C=N\Nc2ccccc2)nc2ccccc2c1-c1ccccc1
inactive: [1] 25 µM | [2] 31 µM | [3] 38.5 µM | [4] 27.2 µM | [5] 41.2 µM

COc1ccc2c[n+](C)c3c4cc(OC)c(OC)cc4ccc3c2c1
inactive: [6] 10.8 µM | [1] 2.28 µM | [2] 28.6 µM | [7] 2.6 µM | [3] 3.52 µM | [4] 1.21 µM | [5] 15.5 µM | [8] 9.84 µM

N#CCCN(c1ccc(/C=C2\N=C(c3ccc(Cl)cc3)OC2=O)cc1)S(=O)(=O)c1ccccc1
inactive: [6] > 100 µM | [1] > 100 µM | [3] > 100 µM | [4] > 100 µM | [5] > 100 µM | [8] > 100 µM

c1ccc2c(c1)Cc1c(Cc3csc4ccccc34)ccc3cccc-2c13
inactive: [6] > 100 µM | [1] > 100 µM | [3] > 100 µM | [4] > 100 µM | [5] > 100 µM | [8] > 100 µM

CN(C)CCn1c2c3ccccc3ccc2c2oc(=O)c3ccccc3c21
inactive: [6] 5.11 µM | [2] 16.1 µM | [3] 7.08 µM | [4] 4.98 µM | [5] 4.53 µM | [8] 15.3 µM

Cn1c(=O)oc2cc(C3CCC(=O)N3Cc3csc(-c4ccccc4)n3)ccc21 (configuration not stated)
inactive: [6] 86.9 µM | [1] 89.5 µM | [2] > 100 µM | [3] > 100 µM | [4] 96.6 µM | [8] 67.1 µM

Cc1ccccc1C1CC(c2ccccc2)=NO1 (configuration not stated)
inactive: [6] > 100 µM | [1] > 100 µM | [2] > 100 µM | [3] > 100 µM | [4] > 100 µM | [5] > 100 µM

COC(=O)C(=O)C(CC(=O)Nc1c(C)cccc1C)C(=O)OC (configuration not stated)
inactive: [6] > 100 µM | [2] > 100 µM | [3] > 100 µM | [4] > 100 µM | [5] > 100 µM | [8] > 100 µM

O=C1CCC(=O)N2CCCCN12
inactive: [6] > 100 µM | [1] > 100 µM | [2] > 100 µM | [3] > 100 µM | [4] > 100 µM | [5] > 100 µM

CN(CCCN1C(=O)c2cccc3cc([N+](=O)[O-])cc(c23)C1=O)CCN(C)CCCN1C(=O)c2cccc3cc([N+](=O)[O-])cc(c23)C1=O
inactive: [1] 11.4 µM | [2] > 39.3 µM | [3] > 39.3 µM | [4] 2.45 µM | [5] > 39.3 µM | [8] > 39.3 µM

CCCc1n[nH]c(CCC(=O)N(Cc2ccccc2)Cc2ccccc2)c1CC
inactive: [6] > 100 µM | [1] > 100 µM | [2] > 100 µM | [3] > 100 µM | [4] > 100 µM | [5] > 100 µM | [8] > 100 µM

CCOC(=O)C12CCCC1(O)N(NC(=O)OC(C)(C)C)C(C)=C2C(=O)OC (configuration not stated)
inactive: [6] > 100 µM | [1] > 100 µM | [2] > 100 µM | [3] > 100 µM | [4] > 100 µM | [5] > 100 µM | [8] > 100 µM

NC(N)NCCCc1cn2c(n1)C1CCCN1C(=O)C2Cc1ccccc1 (configuration not stated)
inactive: [6] > 100 µM | [1] > 100 µM | [3] > 100 µM | [4] > 100 µM | [5] > 100 µM | [8] > 100 µM

CCC1C(C(=O)Nc2ccccc2C)=C(C)NC(C)=C1c1ccccc1C (configuration not stated)
inactive: [6] > 39.7 µM | [1] > 49 µM | [2] > 60.8 µM | [3] > 92.3 µM | [4] > 100 µM | [8] > 100 µM

O=CN1CCN(C=S)CC1
inactive: [6] > 100 µM | [1] > 100 µM | [3] > 100 µM | [4] > 100 µM | [5] > 100 µM | [8] > 100 µM

Cc1ccc2c(c1)SC(c1cc3c(cc1Br)OCO3)S2 (configuration not stated)
inactive: [6] > 31.6 µM | [1] 20 µM | [2] > 31.6 µM | [3] 26.1 µM | [4] > 31.6 µM | [5] > 10 µM | [8] > 100 µM

COC(=O)[C@@H]1C(=O)O[C@@H](c2cc(OC)c(OC)cc2OC)[C@@H]1C(=O)OC.COC(=O)[C@H]1C(=O)O[C@@H](c2cc(OC)c(OC)cc2OC)[C@@H]1C(=O)OC
inactive: [6] > 100 µM | [1] > 100 µM | [3] > 100 µM | [4] > 100 µM | [5] > 100 µM | [8] > 100 µM

COC(=O)C1C(C(=O)OC)C2(OC)c3ccccc3-c3ccccc3C12 (configuration not stated)
inactive: [6] 33.3 µM | [1] 16.7 µM | [2] 55.1 µM | [3] 26.2 µM | [4] 44.1 µM | [5] 54.8 µM
